We go through 21 compounds from ChEMBL document CHEMBL1143801, “Synthesis, SAR and antibacterial studies on novel chalcone oxazolidinone hybrids” (2007).

Holding throughout (type): functional
For one test, the system named is Enterococcus faecium. Description: Antibacterial activity against Enterococcus faecium ATCC 12202.
Test [1] has as its system Staphylococcus aureus. Briefly: Antibacterial activity against Staphylococcus aureus ATCC 49951.
Test [2] deals with Enterococcus faecalis. Briefly: Antibacterial activity against Enterococcus faecalis NCTC 12201.
The test system of test [3] is Enterococcus faecalis. Description: Antibacterial activity against Enterococcus faecalis ATCC 29212.
Test [4] concerns Staphylococcus aureus. Briefly: Antibacterial activity against Staphylococcus aureus ATCC 33591.
Test [5] relates to Staphylococcus aureus. Description: Antibacterial activity against Staphylococcus aureus ATCC 29213.

Converted amounts (≈) assume the structure as drawn.

On to `CC(=O)NC[C@H]1CN(c2ccc(C(=O)/C=C/c3ccc(F)cc3)cc2)C(=O)O1`, for which the MIC in the test with Enterococcus faecium, against Staphylococcus aureus [1], against Enterococcus faecalis [2], in the test on Enterococcus faecalis [3], with Staphylococcus aureus [4] and with Staphylococcus aureus [5] was > 32 µg/mL in each case.
With `CC(=O)NC[C@H]1CN(c2ccc(C(=O)/C=C/c3nccn3C)c(F)c2)C(=O)O1`, the MIC against Enterococcus faecium, against Staphylococcus aureus [1], against Enterococcus faecalis [2], against Enterococcus faecalis [3], in the test on Staphylococcus aureus [4] and in the test on Staphylococcus aureus [5] was 32 µg/mL (≈ 82.8 µM) each time.
For `CC(=O)NC[C@H]1CN(c2ccc(N3CCOCC3)c(F)c2)C(=O)O1` [LINEZOLID], the MIC (commonly the smallest concentration in the dilution series that meets the test's criterion for growth inhibition) is 2 µg/mL (≈ 5.93 µM) in the test with Enterococcus faecium and 1 µg/mL (≈ 2.96 µM) with Staphylococcus aureus [4].
As for `COc1cc(/C=C/C(=O)c2ccc(N3C[C@H](CNC(C)=O)OC3=O)cc2)cc(OC)c1OC`, the MIC against Enterococcus faecium, in the test with Staphylococcus aureus [1], with Enterococcus faecalis [2], against Enterococcus faecalis [3], with Staphylococcus aureus [4] and in the test on Staphylococcus aureus [5] was > 32 µg/mL each time.
For the compound `CC(=O)NC[C@H]1CN(c2ccc(/C=C/C(=O)c3ccccc3)cc2)C(=O)O1`, the MIC in the test on Enterococcus faecium, with Staphylococcus aureus [1], with Enterococcus faecalis [2], against Enterococcus faecalis [3], against Staphylococcus aureus [4] and in the test on Staphylococcus aureus [5] was > 32 µg/mL in each case.
Take `CC(=O)NC[C@H]1CN(c2ccc(C(=O)/C=C/c3ccco3)c(F)c2)C(=O)O1`: the MIC in the test with Enterococcus faecium was 16 µg/mL (≈ 43 µM); with Staphylococcus aureus [1], 8 µg/mL (≈ 21.5 µM); in the test with Enterococcus faecalis [2], 16 µg/mL (≈ 43 µM); in the test with Enterococcus faecalis [3] it was 16 µg/mL (≈ 43 µM); against Staphylococcus aureus [4], 8 µg/mL (≈ 21.5 µM); in the test on Staphylococcus aureus [5], 8 µg/mL (≈ 21.5 µM).
Consider `CC(=O)NC[C@H]1CN(c2ccc(C(=O)/C=C/c3cccs3)c(F)c2)C(=O)O1`, for which the minimal inhibitory concentration (MIC) in the test on Enterococcus faecium, against Staphylococcus aureus [1], in the test with Enterococcus faecalis [2], in the test with Enterococcus faecalis [3], against Staphylococcus aureus [4] and in the test with Staphylococcus aureus [5] was 32 µg/mL (≈ 82.4 µM) throughout.
Take `CC(=O)NC[C@H]1CN(c2ccc(C(=O)/C=C/c3ccccc3)cc2)C(=O)O1`: the MIC with Enterococcus faecium, with Staphylococcus aureus [1], against Enterococcus faecalis [2], against Enterococcus faecalis [3], in the test with Staphylococcus aureus [4] and against Staphylococcus aureus [5] was > 32 µg/mL in each case.
For the compound `CC(=O)NC[C@H]1CN(c2ccc(C(=O)/C=C/c3ccco3)cc2)C(=O)O1`, the MIC worked out at 32 µg/mL (≈ 90.3 µM) with Enterococcus faecium; 16 µg/mL (≈ 45.2 µM) in the test with Staphylococcus aureus [1]; 32 µg/mL (≈ 90.3 µM) in the test on Enterococcus faecalis [2]; 32 µg/mL (≈ 90.3 µM) in the test on Enterococcus faecalis [3]; 32 µg/mL (≈ 90.3 µM) against Staphylococcus aureus [4]; 16 µg/mL (≈ 45.2 µM) against Staphylococcus aureus [5].
Turning to `CC(=O)NC[C@H]1CN(c2ccc(C(=O)/C=C/c3ncc[nH]3)c(F)c2)C(=O)O1`, the minimal inhibitory concentration (MIC) in the test with Enterococcus faecium, in the test on Staphylococcus aureus [1], in the test on Enterococcus faecalis [2], in the test on Enterococcus faecalis [3], with Staphylococcus aureus [4] and with Staphylococcus aureus [5] was 16 µg/mL (≈ 43 µM) each time.
Take `COC(=S)NC[C@H]1CN(c2ccc(C(=O)/C=C/c3ccccn3)c(F)c2)C(=O)O1`: the minimal inhibitory concentration (MIC) in the test with Enterococcus faecium turned out to be 2 µg/mL (≈ 4.81 µM); against Staphylococcus aureus [1] it was 1 µg/mL (≈ 2.41 µM); against Enterococcus faecalis [2] it was 1 µg/mL (≈ 2.41 µM); against Enterococcus faecalis [3], 2 µg/mL (≈ 4.81 µM); with Staphylococcus aureus [4], 0.25 µg/mL (≈ 0.602 µM); in the test with Staphylococcus aureus [5] it was 0.5 µg/mL (≈ 1.2 µM).
Turning to `COC(=O)c1ccc(/C=C/C(=O)c2ccc(N3C[C@H](CNC(C)=O)OC3=O)cc2)cc1`, the MIC against Enterococcus faecium, in the test on Staphylococcus aureus [1], against Enterococcus faecalis [2], against Enterococcus faecalis [3], in the test with Staphylococcus aureus [4] and with Staphylococcus aureus [5] was > 32 µg/mL throughout.
Consider `CC(=O)NC[C@H]1CN(c2ccc(/C=C/C(=O)c3ccc(C)cc3)cc2)C(=O)O1`, for which the MIC in the test on Enterococcus faecium was 32 µg/mL (≈ 84.6 µM); against Staphylococcus aureus [1], 32 µg/mL (≈ 84.6 µM); in the test on Enterococcus faecalis [2], 32 µg/mL (≈ 84.6 µM); in the test with Enterococcus faecalis [3] it was 32 µg/mL (≈ 84.6 µM); in the test with Staphylococcus aureus [4], 32 µg/mL (≈ 84.6 µM); against Staphylococcus aureus [5], > 32 µg/mL.
Turning to `COc1ccc(/C=C/C(=O)c2ccc(N3C[C@H](CNC(C)=O)OC3=O)cc2)cc1OC`, the MIC against Enterococcus faecium, against Staphylococcus aureus [1], in the test on Enterococcus faecalis [2], in the test with Enterococcus faecalis [3], with Staphylococcus aureus [4] and against Staphylococcus aureus [5] was > 32 µg/mL throughout.
As for `CC(=O)NC[C@H]1CN(c2ccc(C(=O)/C=C/c3ccccn3)c(F)c2)C(=O)O1`, the MIC worked out at 16 µg/mL (≈ 41.7 µM) in the test on Enterococcus faecium; 4 µg/mL (≈ 10.4 µM) in the test on Staphylococcus aureus [1]; 16 µg/mL (≈ 41.7 µM) in the test with Enterococcus faecalis [2]; 16 µg/mL (≈ 41.7 µM) in the test on Enterococcus faecalis [3]; 4 µg/mL (≈ 10.4 µM) against Staphylococcus aureus [4]; 8 µg/mL (≈ 20.9 µM) against Staphylococcus aureus [5].
For `CN[C@H](CC(C)C)C(=O)N[C@H]1C(=O)N[C@@H](CC(N)=O)C(=O)N[C@H]2C(=O)N[C@H]3C(=O)N[C@H](C(=O)N[C@H](C(=O)O)c4cc(O)cc(O)c4-c4cc3ccc4O)[C@H](O)c3ccc(c(Cl)c3)Oc3cc2cc(c3O[C@@H]2O[C@H](CO)[C@@H](O)[C@H](O)[C@H]2O[C@H]2C[C@](C)(N)[C@H](O)[C@H](C)O2)Oc2ccc(cc2Cl)[C@H]1O` [VANCOMYCIN], the MIC against Enterococcus faecium is > 32 µg/mL; with Enterococcus faecalis [2], > 32 µg/mL; against Enterococcus faecalis [3], 2 µg/mL (≈ 1.38 µM).
`CC(=O)NC[C@H]1CN(c2ccc(/C=C/C(=O)c3ccc([N+](=O)[O-])cc3)cc2)C(=O)O1`: the MIC against Enterococcus faecium, in the test with Staphylococcus aureus [1], against Enterococcus faecalis [2], against Enterococcus faecalis [3], against Staphylococcus aureus [4] and with Staphylococcus aureus [5] was 32 µg/mL (≈ 78.2 µM) in each case.
For `COc1ccc(C(=O)/C=C/c2ccc(N3C[C@H](CNC(C)=O)OC3=O)cc2)cc1`, the minimum inhibitory concentration (MIC) against Enterococcus faecium, in the test on Staphylococcus aureus [1], in the test on Enterococcus faecalis [2], against Enterococcus faecalis [3], with Staphylococcus aureus [4] and with Staphylococcus aureus [5] was > 32 µg/mL each time.
Consider `CC(=O)NC[C@H]1CN(c2ccc(C(=O)/C=C/c3ccccn3)cc2)C(=O)O1`, for which the minimum inhibitory concentration (MIC) in the test on Enterococcus faecium was found to be 64 µg/mL (≈ 175 µM); in the test with Staphylococcus aureus [1] it was 32 µg/mL (≈ 87.6 µM); against Enterococcus faecalis [2] it was 64 µg/mL (≈ 175 µM); in the test with Enterococcus faecalis [3] it was 64 µg/mL (≈ 175 µM); in the test with Staphylococcus aureus [4], 32 µg/mL (≈ 87.6 µM); against Staphylococcus aureus [5] it was 32 µg/mL (≈ 87.6 µM).
Regarding `CC(=O)NC[C@H]1CN(c2ccc(/C=C/C(=O)c3cccc(F)c3)cc2)C(=O)O1`, the MIC in the test on Enterococcus faecium was > 64 µg/mL; with Staphylococcus aureus [1], > 64 µg/mL; in the test on Enterococcus faecalis [2], > 64 µg/mL; against Enterococcus faecalis [3], > 64 µg/mL; in the test with Staphylococcus aureus [4], 64 µg/mL (≈ 167 µM); against Staphylococcus aureus [5], > 64 µg/mL.
Regarding `CC(=O)NC[C@H]1CN(c2ccc(/C=C/C(=O)c3c(F)cc(Cl)cc3Cl)cc2)C(=O)O1`, the minimum inhibitory concentration (MIC) against Enterococcus faecium, in the test on Staphylococcus aureus [1], with Enterococcus faecalis [2], against Enterococcus faecalis [3], in the test on Staphylococcus aureus [4] and against Staphylococcus aureus [5] was > 32 µg/mL throughout.
